Measurements published in ChEMBL document CHEMBL3232964, “Quinone-carbohydrate nonglucoside conjugates as a new type of cytotoxic agents: synthesis and determination of in vitro activity” (Eur J Med Chem, 2014).
Active and inactive are the calls of the source. The rule behind the calls is not given here.

Experiments:
HeLa [1] = experiment: Cytotoxicity against human HeLa cells assessed as inhibition of number of colonies formed in soft agar after 14 days by microscopic analysis; format: functional
HeLa [2] = experiment: Cytotoxicity against human HeLa cells assessed as cell viability after 48 hrs by MTS assay; format: functional, cell-based
[3] = Cytotoxicity against tumor promotion-sensitive mouse JB6 Cl41 cells assessed as cell viability after 48 hrs by MTS assay; format: cell-based; details: JB6 Cl41, 48 h
HeLa [4] = experiment: Ratio of IC50 to INCC50 for human HeLa cells; format: functional
[5] = target: Cellular tumor antigen p53 (Mus musculus) (UniProt P02340); experiment: Inhibition of p53-dependent transcriptional activity in tumor promotion-sensitive mouse JB6 Cl41 cells after 12 hrs by luciferase-based method; format: cell-based
Sequence of Cellular tumor antigen p53 (Mus musculus) (P02340 whole entry): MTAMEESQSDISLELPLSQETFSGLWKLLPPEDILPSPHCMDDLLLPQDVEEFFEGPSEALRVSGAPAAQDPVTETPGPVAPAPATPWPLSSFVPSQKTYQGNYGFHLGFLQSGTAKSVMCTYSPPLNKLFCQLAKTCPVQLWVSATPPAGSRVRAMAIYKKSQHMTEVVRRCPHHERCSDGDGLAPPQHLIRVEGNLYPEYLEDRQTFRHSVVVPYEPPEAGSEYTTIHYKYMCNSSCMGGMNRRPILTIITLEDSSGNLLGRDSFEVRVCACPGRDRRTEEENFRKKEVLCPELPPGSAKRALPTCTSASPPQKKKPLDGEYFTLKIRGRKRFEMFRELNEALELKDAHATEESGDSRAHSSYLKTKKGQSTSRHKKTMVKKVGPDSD

HeLa [6] = experiment: Cytotoxicity against human HeLa cells assessed as cell viability after 24 hrs by MTS assay; format: functional, cell-based
[7] = Induction of apoptosis in tumor promotion-sensitive mouse JB6 Cl41 cells assessed as viable cells at 5 uM after 24 hrs by Annexin-V-FITC/propidium iodide staining based flow cytometry (reference value: 94.33 +/- 0.87%); format: cell-based; details: read-out: Activity
HeLa [8] = experiment: Induction of p53-independent apoptosis in human HeLa cells assessed as early apoptotic cells at 2.5 uM after 24 hrs by Annexin-V-FITC/propidium iodide double staining based flow cytometry (reference value: 6.71 +/- 4.41%); format: functional
HeLa [9] = experiment: Induction of p53-independent apoptosis in human HeLa cells assessed as viable cells at 2.5 uM after 24 hrs by Annexin-V-FITC/propidium iodide double staining based flow cytometry (reference value: 88.52 +/- 11%); format: functional; details: read-out: Activity
[10] = Induction of apoptosis in tumor promotion-sensitive mouse JB6 Cl41 cells assessed as late apoptotic/necrotic cells at 5 uM after 24 hrs by Annexin-V-FITC/propidium iodide staining based flow cytometry (reference value: 0.53 +/- 0.47%); format: cell-based; details: jb6 cl41, 24 h
[11] = Induction of apoptosis in tumor promotion-sensitive mouse JB6 Cl41 cells assessed as early apoptotic cells at 10 uM after 24 hrs by Annexin-V-FITC/propidium iodide staining based flow cytometry (reference value: 2.15 +/- 1.18%); format: cell-based; details: jb6 cl41, 24 h
[12] = Induction of apoptosis in tumor promotion-sensitive mouse JB6 Cl41 cells assessed as dead cells at 5 uM after 24 hrs by Annexin-V-FITC/propidium iodide staining based flow cytometry (reference value: 2.99 +/- 0.82%); format: cell-based; details: jb6 cl41, 24 h
HeLa [13] = experiment: Induction of p53-independent apoptosis in human HeLa cells assessed as viable cells at 10 uM after 24 hrs by Annexin-V-FITC/propidium iodide double staining based flow cytometry (reference value: 88.52 +/- 11%); format: functional; details: read-out: Activity
[14] = Induction of apoptosis in tumor promotion-sensitive mouse JB6 Cl41 cells assessed as dead cells at 2.5 uM after 24 hrs by Annexin-V-FITC/propidium iodide staining based flow cytometry (reference value: 2.99 +/- 0.82%); format: cell-based; details: jb6 cl41, 24 h
[15] = Induction of apoptosis in tumor promotion-sensitive mouse JB6 Cl41 cells assessed as dead cells at 10 uM after 24 hrs by Annexin-V-FITC/propidium iodide staining based flow cytometry (reference value: 2.99 +/- 0.82%); format: cell-based; details: jb6 cl41, 24 h
HeLa [16] = experiment: Induction of p53-independent apoptosis in human HeLa cells assessed as dead cells at 10 uM after 24 hrs by Annexin-V-FITC/propidium iodide double staining based flow cytometry (reference value: 3.89 +/- 0.3%); format: functional
HeLa [17] = experiment: Induction of p53-independent apoptosis in human HeLa cells assessed as dead cells at 2.5 uM after 24 hrs by Annexin-V-FITC/propidium iodide double staining based flow cytometry (reference value: 3.89 +/- 0.3%); format: functional
[18] = Induction of apoptosis in tumor promotion-sensitive mouse JB6 Cl41 cells assessed as viable cells at 10 uM after 24 hrs by Annexin-V-FITC/propidium iodide staining based flow cytometry (reference value: 94.33 +/- 0.87%); format: cell-based; details: read-out: Activity
[19] = Induction of apoptosis in tumor promotion-sensitive mouse JB6 Cl41 cells assessed as late apoptotic/necrotic cells at 10 uM after 24 hrs by Annexin-V-FITC/propidium iodide staining based flow cytometry (reference value: 0.53 +/- 0.47%); format: cell-based; details: jb6 cl41, 24 h
HeLa [20] = experiment: Induction of p53-independent apoptosis in human HeLa cells assessed as dead cells at 5 uM after 24 hrs by Annexin-V-FITC/propidium iodide double staining based flow cytometry (reference value: 3.89 +/- 0.3%); format: functional
HeLa [21] = experiment: Induction of p53-independent apoptosis in human HeLa cells assessed as early apoptotic cells at 5 uM after 24 hrs by Annexin-V-FITC/propidium iodide double staining based flow cytometry (reference value: 6.71 +/- 4.41%); format: functional
HeLa [22] = experiment: Induction of p53-independent apoptosis in human HeLa cells assessed as viable cells at 5 uM after 24 hrs by Annexin-V-FITC/propidium iodide double staining based flow cytometry (reference value: 88.52 +/- 11%); format: functional; details: read-out: Activity
HeLa [23] = experiment: Induction of p53-independent apoptosis in human HeLa cells assessed as early apoptotic cells at 10 uM after 24 hrs by Annexin-V-FITC/propidium iodide double staining based flow cytometry (reference value: 6.71 +/- 4.41%); format: functional
[24] = Induction of apoptosis in tumor promotion-sensitive mouse JB6 Cl41 cells assessed as viable cells at 2.5 uM after 24 hrs by Annexin-V-FITC/propidium iodide staining based flow cytometry (reference value: 94.33 +/- 0.87%); format: cell-based; details: read-out: Activity
HeLa [25] = experiment: Induction of p53-independent apoptosis in human HeLa cells assessed as late apoptotic/necrotic cells at 2.5 uM after 24 hrs by Annexin-V-FITC/propidium iodide double staining based flow cytometry (reference value: 0.88 +/- 0.72%); format: functional
[26] = Induction of apoptosis in tumor promotion-sensitive mouse JB6 Cl41 cells assessed as early apoptotic cells at 2.5 uM after 24 hrs by Annexin-V-FITC/propidium iodide staining based flow cytometry (reference value: 2.15 +/- 1.18%); format: cell-based; details: jb6 cl41, 24 h
HeLa [27] = experiment: Induction of p53-independent apoptosis in human HeLa cells assessed as late apoptotic/necrotic cells at 5 uM after 24 hrs by Annexin-V-FITC/propidium iodide double staining based flow cytometry (reference value: 0.88 +/- 0.72%); format: functional
[28] = Induction of apoptosis in tumor promotion-sensitive mouse JB6 Cl41 cells assessed as late apoptotic/necrotic cells at 2.5 uM after 24 hrs by Annexin-V-FITC/propidium iodide staining based flow cytometry (reference value: 0.53 +/- 0.47%); format: cell-based; details: jb6 cl41, 24 h
[29] = Induction of apoptosis in tumor promotion-sensitive mouse JB6 Cl41 cells assessed as early apoptotic cells at 5 uM after 24 hrs by Annexin-V-FITC/propidium iodide staining based flow cytometry (reference value: 2.15 +/- 1.18%); format: cell-based; details: jb6 cl41, 24 h
HeLa [30] = experiment: Induction of p53-independent apoptosis in human HeLa cells assessed as late apoptotic/necrotic cells at 10 uM after 24 hrs by Annexin-V-FITC/propidium iodide double staining based flow cytometry (reference value: 0.88 +/- 0.72%); format: functional

## COC1=CC(=O)c2c(O)cccc2C1=O
HeLa [1]
  INCC50: 0.59 µM
HeLa [2]
  IC50: 1.29 µM
[3]
  IC50: 1.93 µM
HeLa [4]
  Ratio: 2.19
[5]
  inhibition: Active
HeLa [6]
  IC50: 1.18 µM

## COC1=CC(=O)c2c(O)ccc(O)c2C1=O
HeLa [1]
  INCC50: 0.73 µM
HeLa [2]
  IC50: 2.16 µM
[3]
  IC50: 2.49 µM
HeLa [4]
  Ratio: 2.97
[5]
  inhibition: Active
HeLa [6]
  IC50: 1.8 µM

## O=C1C=CC(=O)c2c(O)cccc21 [JUGLONE]
HeLa [1]
  INCC50: 39.04 µM
HeLa [2]
  IC50: 65.5 µM
[3]
  IC50: 34.3 µM
HeLa [4]
  Ratio: 1.67
[5]
  inhibition: Active
HeLa [6]
  IC50: 68.5 µM

## O=C1C=C(O)c2c(O)cccc2C1=O
HeLa [1]
  INCC50: 109.37 µM
HeLa [2]
  IC50: 187 µM
[3]
  IC50: > 200 µM
HeLa [4]
  Ratio: 1.71
[5]
  inhibition: Active
HeLa [6]
  IC50: 196 µM

## O=C1C=C(O)c2cccc(O)c2C1=O
HeLa [1]
  INCC50: 35.51 µM
HeLa [2]
  IC50: 118 µM
[3]
  IC50: 193 µM
HeLa [4]
  Ratio: 3.33
[5]
  inhibition: Active
HeLa [6]
  IC50: 124 µM

## CO[C@H]1O[C@H](COC2=CC(=O)c3c(O)cccc3C2=O)[C@@H](O)[C@H](O)[C@H]1O
[7]
  viability at 24 h, 5 µM: 79.4%
HeLa [8]
  Activity: 10.42%
HeLa [1]
  INCC50: 1.68 µM
HeLa [9]
  viability at 2.5 µM: 84.7%
[10]
  Activity: 1.93%
[11]
  Activity: 82.93%
[12]
  Activity: 3.36%
HeLa [2]
  IC50: 5.22 µM
HeLa [13]
  viability at 10 µM: 20.1%
[14]
  Activity: 2.35%
[15]
  Activity: 1.76%
HeLa [16]
  Activity: 21.48%
HeLa [17]
  Activity: 3.47%
[18]
  viability at 24 h, 10 µM: 13.3%
[19]
  Activity: 2.01%
HeLa [20]
  Activity: 2.73%
HeLa [21]
  Activity: 13.09%
HeLa [22]
  viability at 5 µM: 82.8%
[3]
  IC50: 6.54 µM
HeLa [4]
  Ratio: 3.11
HeLa [23]
  Activity: 32.33%
[24]
  viability at 24 h, 2.5 µM: 94.3%
HeLa [25]
  Activity: 1.44%
[26]
  Activity: 2.77%
HeLa [27]
  Activity: 1.38%
[28]
  Activity: 0.62%
[29]
  Activity: 15.33%
[5]
  inhibition: Active
HeLa [6]
  IC50: 5.2 µM
HeLa [30]
  Activity: 26.07%

## CO[C@H]1O[C@H](COC2=CC(=O)c3cccc(O)c3C2=O)[C@@H](O)[C@H](O)[C@H]1O
[7]
  viability at 24 h, 5 µM: 21.2%
HeLa [8]
  Activity: 27.57%
HeLa [1]
  INCC50: 1.47 µM
HeLa [9]
  viability at 2.5 µM: 54.8%
[10]
  Activity: 1.06%
[12]
  Activity: 3.07%
HeLa [2]
  IC50: 2.82 µM
[14]
  Activity: 2.63%
HeLa [17]
  Activity: 8.37%
HeLa [20]
  Activity: 24.08%
HeLa [21]
  Activity: 18.51%
HeLa [22]
  viability at 5 µM: 24.7%
[3]
  IC50: 4.92 µM
HeLa [4]
  Ratio: 1.92
[24]
  viability at 24 h, 2.5 µM: 91.3%
HeLa [25]
  Activity: 9.27%
[26]
  Activity: 4.81%
HeLa [27]
  Activity: 32.74%
[28]
  Activity: 1.28%
[29]
  Activity: 74.65%
[5]
  inhibition: Active
HeLa [6]
  IC50: 2.34 µM

## COC1=CC(=O)c2cccc(O)c2C1=O
HeLa [1]
  INCC50: 0.61 µM
HeLa [2]
  IC50: 1.04 µM
[3]
  IC50: 1.48 µM
HeLa [4]
  Ratio: 1.7
[5]
  inhibition: Active
HeLa [6]
  IC50: 0.96 µM

## O=C1C=C(O)C(=O)c2c(O)ccc(O)c21
HeLa [1]
  INCC50: 8.06 µM
HeLa [2]
  IC50: 37.9 µM
[3]
  IC50: 71.2 µM
HeLa [4]
  Ratio: 4.71
[5]
  inhibition: Active
HeLa [6]
  IC50: 42.4 µM
